Assay results reported in PMC8370991, “Structural basis for the inhibition of HTLV-1 integration inferred from cryo-EM deltaretroviral intasome structures” (Nature Communications, 2021).
Where two headings read alike, the source gives them in different places.

Legend:
HIV-1 = HIV-1 infection model; supplementary ref 1; read-out: HIV-1 EC50 ± stdev; cited from earlier work
recombinant HTLV-1 IN = biological target: T1, recombinant HTLV-1 IN (Human T-cell leukemia virus 1, UniProt P03362); assay: In vitro integration strand transfer assay with HTLV-1 IN; assay type: biochemical; conditions: for HTLV-1 IN strand transfer activity (No drug = 100): INSTI at 634 nM
T1 construct: made in house
T1 sequence (P03362 1168-1462): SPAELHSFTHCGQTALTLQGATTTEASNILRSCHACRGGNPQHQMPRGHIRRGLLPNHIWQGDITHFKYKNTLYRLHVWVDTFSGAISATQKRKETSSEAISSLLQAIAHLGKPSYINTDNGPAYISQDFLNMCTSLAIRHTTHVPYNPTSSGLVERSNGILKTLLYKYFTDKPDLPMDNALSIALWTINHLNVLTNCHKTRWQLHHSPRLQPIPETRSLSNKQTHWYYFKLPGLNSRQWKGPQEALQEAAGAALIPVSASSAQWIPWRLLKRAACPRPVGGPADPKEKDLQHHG
Method: We used in vitro strand transfer assays to screen this small molecule library for its ability to inhibit recombinant HTLV-1 IN. The enzyme was incubated with an oligonucleotide vDNA donor mimic in the presence or absence of INSTIs and was allowed to react with a supercoiled plasmid mimicking target DNA. During the screening, the concentration of each compound was adjusted to 634 nM to provide optimal resolution of efficacy between well- and under-performing compounds.
The donor vDNA that mimics the 3′-processed LTR of HTLV-1 or STLV-1 DNA was preassembled by annealing the U5_S20Q_UP and U5_S20Q_B or MarB43_U5_S30UP or MarB43_U5_S30B oligonucleotides, respectively (Supplementary Table 4) in 100 mM Tris pH 7.4, 400 mM NaCl. For HTLV-1 IN, strand transfer reactions were conducted in a solution of 24.3 mM PIPES pH 6.0, 138.4 mM NaCl, 16.6 mM MgCl2, 5.8 μM ZnCl2, 12.7 mM DTT, 0.53 μM donor DNA and 4 μg of HTLV-1 IN[9],[39]. In brief, the reaction was incubated at RT for 15 min in the presence of an INSTI or dimethyl sulfoxide (DMSO) control and the reaction was started by the addition of 300 ng of pGEM-9Zf(-) supercoiled plasmid DNA. The reaction was incubated for 1 h at 37 °C and stopped by adding 0.5% SDS and 25 mM ethylenediaminetetraacetic acid (EDTA), pH 8.0.
Proteins were degraded by incubation with 30 μg of proteinase K (Roche) at 37 °C for 1 h. DNA was precipitated at −20 °C overnight in the presence of ethanol supplemented with 20 μg of glycogen and then resuspended in 1.5× agarose loading dye. The DNA products were separated by electrophoresis through 1.5% agarose gel and stained with ethidium bromide and imaged using the BioRad GelDox XR + imager. The data were analysed and the IC50 calculated as previously described. In brief, the DNA band that corresponds to the concerted integration product was quantified by densitometry in ImageLab 4.1 (Bio-Rad). All experiments were done in triplicate. Quantified data points were fitted to dose–response curves in Prism 9. The cumulative standard deviation for each drug was calculated as an average of the upper limit and lower limit values: Lowerlimit=IC50/10^logSE(IC50) Upperlimit=IC50×10^logSE(IC50)

[1] = Replicate 1, read-out: HTLV-1 IN strand transfer IC50
[2] = Replicate 2, read-out: HTLV-1 IN strand transfer IC50
[3] = Replicate 3, read-out: HTLV-1 IN strand transfer IC50
[4] = integrase strand-transfer drug titration, n = 3, read-out: HTLV-1 IC50 ± stdev

SMILES	EC50 (HIV-1)	HTLV-1 IN strand transfer activity (No drug = 100) (recombinant HTLV-1 IN; Replicate 1)	HTLV-1 IN strand transfer activity (No drug = 100) (recombinant HTLV-1 IN; Replicate 2)	HTLV-1 IN strand transfer activity (No drug = 100) (recombinant HTLV-1 IN; Replicate 3)	IC50 (recombinant HTLV-1 IN; [1])	IC50 (recombinant HTLV-1 IN; [2])	IC50 (recombinant HTLV-1 IN; [3])	IC50 (recombinant HTLV-1 IN; [4])
Nc1c(C(=O)NCc2ccc(F)cc2F)c(=O)n(O)c2ncc(CCCCCCO)cc12 [XZ426, 4-amino-N-(2,4-difluorobenzyl)-1-hydroxy-6-(6-hydroxyhexyl)-2-oxo-1,2-dihydro-1,8-naphthyridine-3-carboxamide]	2.3 ± 0.6 nM	14.449%	19.5833%	19.9322%	159 nM	169 nM	175 nM	163 ± 27.9 nM
Nc1c(C(=O)NCc2ccc(F)cc2F)c(=O)n(O)c2ncc(CCCCCO)cc12 [XZ419, 4-amino-N-(2,4-difluorobenzyl)-1-hydroxy-6-(5-hydroxypentyl)-2-oxo-1,2-dihydro-1,8-naphthyridine-3-carboxamide]	1.3 ± 0.2 nM	14.8861%	26.7311%	21.3921%	173 nM	249 nM	269 nM	226 ± 21 nM
O=C1c2c(ccc(O)c2O)CN1Cc1ccc(F)c(Cl)c1 [XZ90, 2-(3-chloro-4-fluorobenzyl)-6,7-dihydroxyisoindolin-1-one]	–	47.6981%	83.7072%	92.5665%	–	–	–	–
[N-]=[N+]=NCc1cccc(C(=O)/C=C(\O)C(=O)O)c1 [XZ319, (Z)-4-(3-(azidomethyl)phenyl)-2-hydroxy-4-oxobut-2-enoic acid]	–	88.4055%	92.5212%	100.53%	–	–	–	–
O=C(NCc1ccc(F)cc1F)c1c(O)c2cccnc2n(O)c1=O [XZ351, N-(2,4-difluorobenzyl)-1,4-dihydroxy-2-oxo-1,2-dihydro-1,8-naphthyridine-3-carboxamide]	–	30.0691%	57.1529%	59.6295%	–	–	–	–
Cc1c2c(c(O)c(=O)n1C)C(=O)N(Cc1ccc(F)c(Cl)c1)C2=O [XZ202, 2-(3-chloro-4-fluorobenzyl)-7-hydroxy-4,5-dimethyl-1H-pyrrolo[3,4-c]pyridine-1,3,6(2H,5H)-trione]	–	98.3269%	98.0594%	97.9688%	–	–	–	–
O=C(NNC(=O)c1cccc(O)c1O)c1ccccc1O [XZ45, 2,3-dihydroxy-N'-(2-hydroxybenzoyl)benzohydrazide]	–	95.0641%	107.975%	100.183%	–	–	–	–
COC(=O)c1c(N)c2cccnc2n(O)c1=O [XZ462, methyl 4-amino-1-hydroxy-2-oxo-1,2-dihydro-1,8-naphthyridine-3-carboxylate]	–	111.483%	96.7056%	116.696%	–	–	–	–
